Numbered stars: 1 amine (or outer) side, 2 acyl side, 3 side chain; on linkers, the order of the positions; unused ones are H or OH. Bridge positions count the residues as written; N and C are the ends. Square brackets hold non-standard residues; d marks the D form. Side chains are listed from the residue outwards. Peptide text beside a SMILES is read from it. * marks the point of attachment. C20 diacid = O=C(O)CCCCCCCCCCCCCCCCCCC(=O)*; C18 diacid = O=C(O)CCCCCCCCCCCCCCCCC(=O)*; γGlu = O=C(O)[C@H](CCC(=O)[*:2])N[*:1]; Aib = CC(C)(N)C(=O)O
Legend:
[1] = Thioflavin T fibrillation assay; type: physicochemical
Description: Peptide aggregation that form fibrils is an indication of physical instability. Fibril formation in solution poses a significant risk for the stability of injectable peptide drug products. Thioflavin T (ThT) fibrillation assay is a useful tool to assess the aggregation kinetics of a peptide or protein under accelerated and stressed conditions that can be used to forecast the long-term viability of a compound in solution. ThT can selectively bind amyloid fibrils and the resultant complex emits strong fluorescence signal at 482 nm when excited at 450 nm (Anal Biochem. 1989 Mar;177(2):244-9). Monitoring of the change in fluorescence signal is an established method to study the fibril forming potential of peptides and proteins. ThT (purchased from Sigma Aldrich) stock solution is prepared by dissolving the ThT powder in Milli-Q water and filtered to obtain a 0.25 mM solution. The concentration of the solution is measured at 412 nm using an extinction coefficient of 36 mM^−1cm^−1. Test peptides were dissolved at 1 mg/mL in 25 mM sodium acetate buffer pH 4.0. 100 μL aliquot of peptide solution and 5 μL aliquot of ThT solution were placed in a clear bottom black fluorescence 96-well plate. 5 replicates of each test samples were placed in zo the same row of the plate. Buffer was placed in control wells for baseline correction. All empty wells were filled with water to prevent evaporation. The plate was sealed with aluminium seal and placed in fluorescence plate reader and incubated for 6 days at 37 ° C. with intermittent orbital shaking at 500 to 750 rpm. The fluorescence intensity was measured every 30 min using excitation at 444 nm and emission at 480 nm. The fibril forming potential of the test peptides was determined by measuring the average time taken to detect an increase in baseline corrected fluorescence intensity.

[2] = target: T1, human amylin receptor (calcitonin receptor co-expressed with receptor activity modifying protein, RAMP3) (hAMYR3) (Homo sapiens, UniProt O60896+P30988); experiment: cAMP production in 1321N1 cells with stable recombinant expression of human amylin receptor (hAMYR3); type: cell-based; settings: for Ratio (selectivity hAMYR vs hCTR, ratio of EC50 values at the two receptors): EC50 hCTR / EC50 hAMYR3; for EC50: cAMP, 1321N1 cells, assay buffer with 0.1% BSA, read-out: EC50 (pM) hAMYR3
T1 construct: expressed in transfected cells
T1 sequence (P30988 25-474): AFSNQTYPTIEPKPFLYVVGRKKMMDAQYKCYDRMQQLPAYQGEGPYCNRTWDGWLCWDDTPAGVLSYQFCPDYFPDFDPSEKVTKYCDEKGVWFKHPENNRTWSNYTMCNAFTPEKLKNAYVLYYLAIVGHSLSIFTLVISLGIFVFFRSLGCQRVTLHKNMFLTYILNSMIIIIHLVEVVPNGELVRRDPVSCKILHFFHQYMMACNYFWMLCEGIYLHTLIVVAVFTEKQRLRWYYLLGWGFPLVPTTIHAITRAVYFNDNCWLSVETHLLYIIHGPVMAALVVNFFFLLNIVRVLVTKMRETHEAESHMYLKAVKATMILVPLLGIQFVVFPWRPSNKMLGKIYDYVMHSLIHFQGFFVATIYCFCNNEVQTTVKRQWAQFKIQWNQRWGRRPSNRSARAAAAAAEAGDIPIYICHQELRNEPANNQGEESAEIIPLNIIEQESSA
T1 sequence (O60896 24-148 partner): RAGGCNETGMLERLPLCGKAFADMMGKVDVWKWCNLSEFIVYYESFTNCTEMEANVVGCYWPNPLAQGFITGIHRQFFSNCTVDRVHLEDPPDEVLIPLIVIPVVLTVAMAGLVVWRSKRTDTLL
Outline: (§1)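 EC50 values come from 4-parameter logistic fits of HTRF cAMP signal, normalised to maximal calcitonin or amylin effect. Peptides were tested in duplicate for 30 min at RT in IBMX-containing (0.5 mM) BSA/HEPES buffer pH 7.4 on stable 1321N1 (human CTR, AMYR3) or HEK (rat CTR, AMYR3) lines.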

[3] = target: T2, human calcitonin receptor (hCTR) (Homo sapiens, UniProt P30988); experiment: cAMP production in 1321N1 cells with stable recombinant expression of human calcitonin receptor (hCTR); type: cell-based; settings: cAMP, 1321N1 cells, assay buffer with 0.1% BSA; read-out: EC50 (pM) hCTR
T2 construct: expressed in transfected cells
T2 sequence (P30988 25-474): T1 sequence (P30988 25-474)
Outline: as §1

in vivo = settings: male, Sprague-Dawley, rat, 20 nmol/kg

Structure (SMILES) | fibril-forming tendency ([1]; ThT assay, 1 mg/mL, pH 4.0, 37 °C, compared to pramlintide) | Time taken to detect increase in fluorescence intensity ([1]; ThT fibrillation assay, peptide 1 mg/mL in 25 mM sodium acetate buffer pH 4.0, 6 days at 37 °C with shaking, >144 h = no increase) [h] | Ratio (selectivity hAMYR vs hCTR, ratio of EC50 values at the two receptors) [2] | EC50 [2] [pM] | EC50 [3] [pM] | half-life (in vivo; iv) [h] | half-life (in vivo; sc) [h]
CC[C@H](C)[C@H](NC(=O)[C@@H]1CCCN1C(=O)CNC(=O)[C@H](Cc1ccccc1)NC(=O)[C@H](CC(N)=O)NC(=O)[C@H](CC(N)=O)NC(=O)[C@H](CO)NC(=O)[C@H](CO)NC(=O)[C@H](Cc1c[nH]cn1)NC(=O)[C@@H](NC(=O)[C@H](CC(C)C)NC(=O)[C@H](Cc1ccccc1)NC(=O)[C@H](CC(N)=O)NC(=O)[C@H](C)NC(=O)[C@H](CC(C)C)NC(=O)[C@H](CCCNC(=N)N)NC(=O)[C@H](CCC(N)=O)NC(=O)[C@@H](NC(=O)[C@H](C)NC(=O)[C@@H]1CSSC[C@H](NC(=O)[C@H](CCCCN)NC(=O)CNC(=O)CNC(=O)CNC(=O)CC[C@H](NC(=O)CC[C@H](NC(=O)CCCCCCCCCCCCCCCCC(=O)O)C(=O)O)C(=O)O)C(=O)N[C@@H](CC(N)=O)C(=O)N[C@@H]([C@@H](C)O)C(=O)N[C@@H](C)C(=O)N[C@@H]([C@@H](C)O)C(=O)N1)[C@@H](C)O)C(C)C)C(=O)N[C@@H](CC(C)C)C(=O)N1CCC[C@H]1C(=O)N1CCC[C@H]1C(=O)N[C@H](C(=O)N[C@@H](CC(N)=O)C(=O)N[C@H](C(=O)NCC(=O)N[C@@H](CO)C(=O)N[C@@H](CC(N)=O)C(=O)N[C@H](C(=O)N[C@@H](Cc1ccc(O)cc1)C(N)=O)[C@@H](C)O)C(C)C)[C@@H](C)O [Peptide 4] ({C18 diacid-γGlu-γGlu}-GGGKCNTATCATQRLANFLVHSSNNFGPILPPTNVGSNTY-NH2; disulfide 5-10) | increases the fibril-forming tendency | <5 | 30 | 248 | 7530 | 12 | 12
CC[C@H](C)[C@H](NC(=O)[C@@H]1CCCN1C(=O)CNC(=O)[C@H](Cc1ccccc1)NC(=O)[C@H](CC(N)=O)NC(=O)C(C)(C)NC(=O)[C@H](CO)NC(=O)[C@H](CO)NC(=O)[C@H](Cc1c[nH]cn1)NC(=O)[C@@H](NC(=O)[C@H](CC(C)C)NC(=O)[C@H](Cc1ccccc1)NC(=O)[C@H](CC(N)=O)NC(=O)[C@H](C)NC(=O)[C@H](CC(C)C)NC(=O)[C@H](CCCNC(=N)N)NC(=O)[C@H](CCC(N)=O)NC(=O)[C@@H](NC(=O)[C@H](C)NC(=O)[C@@H]1CSSC[C@H](NC(=O)[C@@H](N)CCCCNC(=O)CC[C@H](NC(=O)CCCCCCCCCCCCCCCCC(=O)O)C(=O)O)C(=O)N[C@@H](CC(N)=O)C(=O)N[C@@H]([C@@H](C)O)C(=O)N[C@@H](C)C(=O)N[C@@H]([C@@H](C)O)C(=O)N1)[C@@H](C)O)C(C)C)C(=O)N[C@@H](CC(C)C)C(=O)N1CCC[C@H]1C(=O)N1CCC[C@H]1C(=O)N[C@H](C(=O)N[C@@H](CC(N)=O)C(=O)N[C@H](C(=O)NCC(=O)N[C@@H](CO)C(=O)N[C@@H](CCCNC(=N)N)C(=O)N[C@H](C(=O)N[C@@H](Cc1ccc(O)cc1)C(N)=O)[C@@H](C)O)C(C)C)[C@@H](C)O [Peptide 64, K(γE-C18diacid)[CNTATC]ATQRLANFLVHSS(Aib)NFGPILPPTNVGSRTY-amide] (H-K([γGlu-C18 diacid])CNTATCATQRLANFLVHSS[Aib]NFGPILPPTNVGSRTY-NH2; disulfide 2-7; N-terminus assumed) |  |  | 9 | 149 | 1280 | 6 | 5
CC[C@H](C)[C@H](NC(=O)[C@@H]1CCCN1C(=O)CNC(=O)[C@H](Cc1ccccc1)NC(=O)[C@H](CC(N)=O)NC(=O)C(C)(C)NC(=O)[C@H](CO)NC(=O)[C@H](CO)NC(=O)[C@H](Cc1c[nH]cn1)NC(=O)[C@@H](NC(=O)[C@H](CC(C)C)NC(=O)[C@H](Cc1ccccc1)NC(=O)[C@H](CC(N)=O)NC(=O)[C@H](C)NC(=O)[C@H](CC(C)C)NC(=O)[C@H](CCCNC(=N)N)NC(=O)[C@H](CCC(N)=O)NC(=O)[C@@H](NC(=O)[C@H](C)NC(=O)[C@@H]1CSSC[C@H](NC(=O)[C@H](CCCCN)NC(=O)[C@@H](N)CCCCNC(=O)CC[C@H](NC(=O)CCCCCCCCCCCCCCCCC(=O)O)C(=O)O)C(=O)N[C@@H](CC(N)=O)C(=O)N[C@@H]([C@@H](C)O)C(=O)N[C@@H](C)C(=O)N[C@@H]([C@@H](C)O)C(=O)N1)[C@@H](C)O)C(C)C)C(=O)N[C@@H](CC(C)C)C(=O)N1CCC[C@H]1C(=O)N1CCC[C@H]1C(=O)N[C@H](C(=O)N[C@@H](CCCNC(=N)N)C(=O)N[C@H](C(=O)NCC(=O)N[C@@H](CO)C(=O)N[C@@H](CC(N)=O)C(=O)N[C@H](C(=O)N[C@@H](Cc1ccc(O)cc1)C(N)=O)[C@@H](C)O)C(C)C)[C@@H](C)O [Peptide 69, K(γE-C18diacid)K[CNTATC]ATQRLANFLVHSS(Aib)NFGPILPPTRVGSNTY-amide] (H-K([γGlu-C18 diacid])KCNTATCATQRLANFLVHSS[Aib]NFGPILPPTRVGSNTY-NH2; disulfide 3-8) |  |  | 10 | 164 | 1570 | 6.3 | 8.5
CC[C@H](C)[C@H](NC(=O)[C@H](C)NC(=O)[C@@H]1CCCN1C(=O)[C@H](Cc1ccccc1)NC(=O)[C@H](CC(N)=O)NC(=O)C(C)(C)NC(=O)[C@H](CO)NC(=O)[C@H](CO)NC(=O)[C@H](Cc1c[nH]cn1)NC(=O)[C@@H](NC(=O)[C@H](CC(C)C)NC(=O)[C@H](Cc1ccccc1)NC(=O)[C@H](CC(N)=O)NC(=O)[C@H](C)NC(=O)[C@H](CC(C)C)NC(=O)[C@H](CCCNC(=N)N)NC(=O)[C@H](CCC(N)=O)NC(=O)[C@@H](NC(=O)[C@H](C)NC(=O)[C@@H]1CSSC[C@H](NC(=O)[C@@H](N)CCCCNC(=O)CC[C@H](NC(=O)CC[C@H](NC(=O)CCCCCCCCCCCCCCCCCCC(=O)O)C(=O)O)C(=O)O)C(=O)N[C@@H](CC(N)=O)C(=O)N[C@@H]([C@@H](C)O)C(=O)N[C@@H](C)C(=O)N[C@@H]([C@@H](C)O)C(=O)N1)[C@@H](C)O)C(C)C)C(=O)N[C@@H](CC(C)C)C(=O)N[C@@H](CO)C(=O)N1CCC[C@H]1C(=O)N[C@H](C(=O)N[C@@H](CC(N)=O)C(=O)N[C@H](C(=O)NCC(=O)N[C@@H](CO)C(=O)N[C@@H](CC(N)=O)C(=O)N[C@H](C(=O)N[C@@H](Cc1ccc(O)cc1)C(N)=O)[C@@H](C)O)C(C)C)[C@@H](C)O [Peptide 117, K(γE-γE-C20diacid)[CNTATC]ATQRLANFLVHSS(Aib)NFPAILSPTNVGSNTY-amide] (H-K([γGlu-γGlu-C20 diacid])CNTATCATQRLANFLVHSS[Aib]NFPAILSPTNVGSNTY-NH2; disulfide 2-7; N-terminus assumed) |  |  | 4 | 770 | 3190 | 9.8 | 12.9
